Reference: ChEMBL document CHEMBL5550112, “Development of a fluorescent ligand that can illuminate nuclear G-quadruplexes and modulate oncogene expression” (Bioorg Med Chem, 2024)
The source made the active and inactive calls. The calls are words filed in the database; no cut-off is given here.

Columns and labels:
MDA-MB-231 [1] = assay: Antiproliferative activity against human MDA-MB-231 cells cultured as 3D tumor spheroids assessed as inhibition of tumor volume incubated for 7 days; format: functional, cell-based; details: time 7.0 day
Quadruplex DNA [2] = assay: Stabilization of FAM/TAMRA-labelled c-MYC G-quadruplex DNA (unknown origin) assessed as change in melting temperature in presence of duplex DNA by FRET assay; format: nucleic-acid assay
Quadruplex DNA [3] = assay: Binding affinity to Parallel c-KIT1 G-quadruplex DNA (unknown origin) assessed as increase in fluorescence intensity at 5 uM by fluorescence spectrophotometric analysis; format: nucleic-acid assay
MDA-MB-231 [4] = assay: Induction of apoptosis in human MDA-MB-231 cells assessed as downregulation of c-MYC protein expression at 10 to 20 uM incubated for 24 hrs by Western blot analysis; format: functional, cell-based; details: dose 10-20 µM
Quadruplex DNA [5] = assay: Binding affinity to Parallel c-KIT2 G-quadruplex DNA (unknown origin) assessed as increase in fluorescence intensity at 5 uM by fluorescence spectrophotometric analysis; format: nucleic-acid assay
MDA-MB-231 [6] = assay: Induction of cell cycle arrest in human MDA-MB-231 cells assessed as accumulation of cells at S phase at 15 uM incubated for 24 hrs by flow cytometry (reference value: 13 %); format: functional
Albumin = Albumin (Bos taurus, UniProt P02769); assay: Binding affinity to bovine serum albumin assessed as increase in fluorescence intensity at 5 uM by fluorescence spectrophotometric analysis; format: cell-free; details: cattle
DNA [7] = assay: Binding affinity to Duplex DNA (unknown origin) assessed as hypochromic red shift at 5 uM by absorption spectra analysis; format: nucleic-acid assay
Quadruplex DNA [8] = assay: Binding affinity to c-MYC G-quadruplex DNA (unknown origin) assessed as dissociation constant by fluorescence spectrophotometric analysis; format: nucleic-acid assay
MDA-MB-231 [9] = assay: Induction of cell death in human MDA-MB-231 cells cultured as 3D tumor spheroids assessed as increase in red fluorescence intensity at 40 uM incubated for 7 days by propidium iodide staining based imaging analysis; format: functional; details: time 7.0 day
Quadruplex DNA [10] = assay: Binding affinity to Parallel BCL2 G-quadruplex DNA (unknown origin) assessed as increase in fluorescence intensity at 5 uM by fluorescence spectrophotometric analysis; format: nucleic-acid assay
Quadruplex DNA [11] = assay: Binding affinity to Parallel EAD G-quadruplex DNA (unknown origin) assessed as increase in fluorescence intensity at 5 uM by fluorescence spectrophotometric analysis; format: nucleic-acid assay
MDA-MB-231 [12] = assay: Induction of apoptosis in human MDA-MB-231 cells assessed as downregulation of PARP protein expression at 10 to 20 uM incubated for 24 hrs by Western blot analysis; format: functional, cell-based; details: dose 10-20 µM
MDA-MB-231 [13] = assay: Induction of cell cycle arrest in human MDA-MB-231 cells assessed as accumulation of cells at G0-G1 phase at 10 uM incubated for 24 hrs by flow cytometry (reference value: 69.6 %); format: functional
MDA-MB-231 [14] = assay: Induction of cell cycle arrest in human MDA-MB-231 cells assessed as accumulation of cells at S phase at 10 uM incubated for 24 hrs by flow cytometry (reference value: 13 %); format: functional
Quadruplex DNA [15] = assay: Binding affinity to Parallel c-MYC G-quadruplex DNA (unknown origin) assessed as increase in fluorescence intensity at 5 uM by fluorescence spectrophotometric analysis; format: nucleic-acid assay
Quadruplex DNA [16] = assay: Binding affinity to G-quadruplex DNA in human MDA-MB-231 cells assessed as increase in fluorescence at 2 uM incubated for 30 mins by DNase I digestion based confocal microscopic analysis; format: cell-based
DNA [17] = assay: Binding affinity to Duplex DNA (unknown origin) assessed as increase in fluorescence intensity at 5 uM by fluorescence spectrophotometric analysis; format: nucleic-acid assay
Quadruplex DNA [18] = assay: Binding affinity to 3'-Cy5-labelled c-MYC G-quadruplex DNA (unknown origin) assessed as dissociation constant by fluorescence quenching analysis; format: nucleic-acid assay
MDA-MB-231 [19] = assay: Induction of cell cycle arrest in human MDA-MB-231 cells assessed as accumulation of cells at G2-M phase at 20 uM incubated for 24 hrs by flow cytometry (reference value: 16.8 %); format: functional
Quadruplex DNA [20] = assay: Binding affinity to c-MYC G-quadruplex DNA (unknown origin) assessed as fluorescence quantum yield by fluorescence spectrophotometric analysis; format: nucleic-acid assay
MDA-MB-231 [21] = assay: Antiproliferative activity against human MDA-MB-231 cells assessed as inhibition of cell growth incubated for 24 hrs by CCK-8 assay; format: functional, cell-based; details: MDA-MB-231, 24 h
MDA-MB-231 [22] = assay: Induction of cell cycle arrest in human MDA-MB-231 cells assessed as accumulation of cells at G0-G1 phase at 15 uM incubated for 24 hrs by flow cytometry (reference value: 69.6 %); format: functional
MDA-MB-231 [23] = assay: Induction of cell death in human MDA-MB-231 cells cultured as 3D tumor spheroids assessed as increase in red fluorescence intensity at 20 uM incubated for 7 days by propidium iodide staining based imaging analysis; format: functional; details: time 7.0 day
Quadruplex DNA [24] = assay: Binding affinity to Parallel KRAS G-quadruplex DNA (unknown origin) assessed as increase in fluorescence intensity at 5 uM by fluorescence spectrophotometric analysis; format: nucleic-acid assay
Quadruplex DNA [25] = assay: Binding affinity to G-quadruplex DNA in human MDA-MB-231 cells assessed as increase in fluorescence at 2 uM incubated for 30 mins in presence of dimethyl sulfate by Hoechst 33342 staining based confocal microscopic analysis; format: cell-based
Quadruplex DNA [26] = assay: Binding affinity to Antiparallel ODN G-quadruplex DNA (unknown origin) assessed as increase in fluorescence intensity at 5 uM by fluorescence spectrophotometric analysis; format: nucleic-acid assay
Quadruplex DNA [27] = assay: Binding affinity to Antiparallel c-KIT G-quadruplex DNA (unknown origin) assessed as increase in fluorescence intensity at 5 uM by fluorescence spectrophotometric analysis; format: nucleic-acid assay
MDA-MB-231 [28] = assay: Induction of apoptosis in human MDA-MB-231 cells assessed as downregulation of c-MYC gene expression at 10 to 20 uM incubated for 24 hrs by RT-PCR analysis; format: functional, cell-based; details: dose 10-20 µM
DNA [29] = assay: Binding affinity to Duplex DNA (unknown origin) assessed as dissociation constant by fluorescence spectrophotometric analysis; format: nucleic-acid assay
Quadruplex DNA [30] = assay: Binding affinity to Antiparallel Bm G-quadruplex DNA (unknown origin) assessed as increase in fluorescence intensity at 5 uM by fluorescence spectrophotometric analysis; format: nucleic-acid assay
MDA-MB-231 [31] = assay: Induction of cell cycle arrest in human MDA-MB-231 cells assessed as accumulation of cells at G0-G1 phase at 20 uM incubated for 24 hrs by flow cytometry (reference value: 69.6 %); format: functional
DNA [32] = assay: Binding affinity to Duplex DNA (unknown origin) assessed as fluorescence quantum yield by fluorescence spectrophotometric analysis; format: nucleic-acid assay

Chain of Albumin (P02769 whole entry): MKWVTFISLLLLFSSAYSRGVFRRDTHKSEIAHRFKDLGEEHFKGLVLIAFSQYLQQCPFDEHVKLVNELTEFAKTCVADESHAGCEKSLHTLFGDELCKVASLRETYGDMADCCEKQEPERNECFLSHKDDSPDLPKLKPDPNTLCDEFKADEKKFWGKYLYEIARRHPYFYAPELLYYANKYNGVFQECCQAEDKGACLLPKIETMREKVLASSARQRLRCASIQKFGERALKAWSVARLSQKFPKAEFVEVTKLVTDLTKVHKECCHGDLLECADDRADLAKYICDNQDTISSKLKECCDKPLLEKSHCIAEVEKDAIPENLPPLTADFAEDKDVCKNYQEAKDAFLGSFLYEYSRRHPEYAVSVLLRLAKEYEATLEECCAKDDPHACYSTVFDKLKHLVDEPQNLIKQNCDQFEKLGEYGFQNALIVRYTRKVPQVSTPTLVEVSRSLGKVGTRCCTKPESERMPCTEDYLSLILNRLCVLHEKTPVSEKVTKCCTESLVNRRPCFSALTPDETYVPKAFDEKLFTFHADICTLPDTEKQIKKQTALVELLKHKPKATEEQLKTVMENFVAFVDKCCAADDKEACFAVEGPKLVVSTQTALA

ΔTm (Quadruplex DNA [2]): 8.1 °C
Activity (Quadruplex DNA [3]): Active
Activity (Quadruplex DNA [5]): Active
Activity (Albumin): Not Active
Activity (DNA [7]): Active
Kd (Quadruplex DNA [8]): 0.7 µM
Activity (Quadruplex DNA [10]): Active
Activity (Quadruplex DNA [11]): Active
Activity (Quadruplex DNA [15]): Active
Activity (DNA [17]): inactive
Kd (Quadruplex DNA [18]): 1 µM
Activity (Quadruplex DNA [20]): 0.3
IC50 (MDA-MB-231 [21]): 13.3 µM
Activity (Quadruplex DNA [24]): Active
Activity (Quadruplex DNA [26]): Active
Activity (Quadruplex DNA [27]): Active
Kd (DNA [29]): 5.3 µM
Activity (Quadruplex DNA [30]): Active
Activity (DNA [32]): 0.03
Compound: CCn1c2ccccc2c2cc(/C=C/c3sc4ccccc4[n+]3C)ccc21.[I-]
Activity (MDA-MB-231 [1]): Dose-Dependent Effect
Activity (MDA-MB-231 [4]): Active
Activity (MDA-MB-231 [6]): 10.2%
Activity (MDA-MB-231 [9]): Active
Activity (MDA-MB-231 [12]): Active
Activity (MDA-MB-231 [13]): 66.5%
Activity (MDA-MB-231 [14]): 14.5%
Activity (Quadruplex DNA [16]): inactive
Activity (MDA-MB-231 [19]): 6.4%
Activity (MDA-MB-231 [22]): 47.2%
Activity (MDA-MB-231 [23]): Active
Activity (Quadruplex DNA [25]): inactive
Activity (MDA-MB-231 [28]): Active
Activity (MDA-MB-231 [31]): 28.3%
